Measured values as given in patent publication US20080075796A1, “Compositions and Methods for Controlling Insects” (TyraTech, Inc., priority 2003, published 2008).
Several values for one entry are separate records, joined by “and”; a condition that tells them apart may be missing. Identical values can stand only once.

Key:
[1] = test system: Drosophila melanogaster Or83b olfactory receptor, SEQ ID NO: 6; experiment: Interaction of plant essential oils with Or83b receptor binding site (3H-tyramine); details: membranes, FIGS. 16, 18-21
Protocol: (§1) Total RNA is prepared from the head and antenna of wild type Drosophila melanogaster using Trizol Reagent (Invitrogen). They are homogenized in the Trizol using a motor driven teflon pestle and glass homogenizer. RNA is then prepared as per the manufacturer's instructions and includes removal of proteoglycans and polysaccharides by precipitation. The total RNA is reverse transcribed using oligo-dT as a primer and MuLV reverse transcriptase (Applied Biosystems). […] The Sense oligonucleotides contain Not I sites and the antisense oligonucleotides contain Sac II sites. Both restriction sites are indicated by underlined nucleotide. […] For PCR amplification of Or83b, Vent polymerase (New England Biolabs) is used with the following conditions: about 95° C., about 5 min for about 1 cycle; about 95° C., about 30 sec; and about 70° C., about 90 sec for about 40 cycles; and about 70° C., about 10 min for about 1 cycle. For PCR amplification of Or43a, the Failsafe PCR premix selection kit (Epicentre Technologies) is used with the following conditions: about 95° C., about 5 mill for about 1 cycle; about 95° C., about 30 sec; about 60° C., about 30 sec and about 70° C., about 90 sec for about 50 cycles; and about 70° C., about 10 min for about 1 cycle. […] The PCR products are digested with Sac II and Not I, gel purified and ligated into pAC 5.1/N5 His B (Invitrogen). Inserts are sequenced on both strands by automated fluorescent sequencing (Vanderbilt Cancer Center).
(§2) To address whether Or83b receptor and Or43a receptor contain a specific binding site for tyramine, membranes expressing Or83b receptor or Or43a receptor are prepared from cells expressing either receptor, as described above, and used for competitive binding with ^3H-tyramine. The binding assay protocol is exactly as described for cells expressing TyrR, as described above.
(§3) The cells expressing one of the olfactory receptors are used to investigate the interaction of plant essential oils with these receptors and the signaling cascade downstream of each receptor.
(§4) For the binding activity, membranes are prepared from each cell model and used to investigate the interaction of plant essential oil with the receptor binding site.

[2] = test system: Drosophila melanogaster Or43a olfactory receptor, SEQ ID NO: 4; experiment: Interaction of plant essential oils with Or43a receptor binding site (3H-tyramine); details: membranes, FIGS. 16, 17, 19-21
Protocol: as §1, §2, §3, §4

[3] = test system: Or83b and Or43a receptors; experiment: Interaction of plant essential oils with olfactory receptor binding site (membranes, ^3H-tyramine); parameters: species or system Drosophila melanogaster; details: membranes incubated with ^3H-tyramine
Protocol: as §3, §4

[4] = test system: farm ants; experiment: Repellent effect on farm ants (treated filter paper); assay type: in vivo; details: for repellency: in words
Protocol: Adult insect are randomly selected for testing the repellent effect of compositions and are not individually marked. About 5 insects per replicate are used. About 3 replicates are used for each treatment. Untreated control tests are included with only solvent (acetone) application to an equal sized population/replications, held under identical conditions. A filter paper (about 80 cm^2) is treated with the composition (about 100 mg in […] acetone). After about 3 min of air drying, the filter paper is placed in a dish and repellency against insects is performed. Insects are released to the dish, one insect at a time at the far end of the dish. Using one or more stopwatches, the time spent on either the filter paper or the untreated surface of the dish is recorded up to about 300 seconds. Repellency ratio (RR) is calculated as follows: RR=[(time on control surface−time on treated surface)/total time of test].
The repellent effect of various plant essential oils is tested by treating a filter paper with the test oils. After about five minutes at room temperature, the paper is placed in a dish and ants are introduced one at a time. […] Oils are tested alone. Additionally, oils are mixed to form compositions, which are then tested.

[5] = target: T1, Or43a receptor (Drosophila melanogaster, UniProt P81917, L154V); experiment: Intracellular Ca^2+ mobilization in Schneider cells expressing Or43a receptor; assay type: cell-based; details: before vs approximately 150 seconds after treatment
T1 construct: His (from vector pAc5.1/V5-His B) (C); expressed in transfected cells
Protocol: Intracellular calcium ion concentrations ([Ca^2+]i) are measured by using the acetoxymethyl (AM) ester of the fluorescent indicator fura-2 (Enan, et al., Biochem. Pharmacol vol 51, 447-454). In this study, cells expressing tyramine receptor are grown under standard conditions. A cell suspension is prepared in assay buffer (140 mM NaCL, 10 mM HEPES, 10 mM glucose, 5 mM KCl, 1 mM CaCl2, 1 mM MgCl2) and cell number adjusted to about 2×10^6 cells per ml. Briefly, about 1.0 ml cell suspension (about 2×10^6 cells) is incubated with about 5 μM Fura 2/AM for about 30 min at about 28° C. After incubation, the cells are pelleted at about 3700 rpm for about 10 sec at room temperature and then resuspended in about 1.5 ml assay buffer. [Ca^2+]i changes are analyzed in spectrofluorometer in the presence and absence of test chemicals. Excitation wave lengths are about 340 nm (generated by Ca^2+-bound fura-2) and about 380 nm (corresponding to Ca^2+-free fura-2). The fluorescence intensity is monitored at an emission wave length of about 510 nm. No absorbance of fluorescence artifacts are observed with any of the compounds used. The ratio of about 340/380 nm is calculated and plotted as a function of time.
Intracellular Ca^2+ levels are measured using the method described above in Example 3.
Changes in intracellular Ca^2+ levels are calculated based on the difference between the 340/380 fluorescence ratios before and after approximately 150 seconds of the treatment.

[6] = Day 0, test up to about 300 seconds
[7] = Day 0, time on treated surface of up to about 300 seconds

T1 sequence (P81917 whole entry L154V): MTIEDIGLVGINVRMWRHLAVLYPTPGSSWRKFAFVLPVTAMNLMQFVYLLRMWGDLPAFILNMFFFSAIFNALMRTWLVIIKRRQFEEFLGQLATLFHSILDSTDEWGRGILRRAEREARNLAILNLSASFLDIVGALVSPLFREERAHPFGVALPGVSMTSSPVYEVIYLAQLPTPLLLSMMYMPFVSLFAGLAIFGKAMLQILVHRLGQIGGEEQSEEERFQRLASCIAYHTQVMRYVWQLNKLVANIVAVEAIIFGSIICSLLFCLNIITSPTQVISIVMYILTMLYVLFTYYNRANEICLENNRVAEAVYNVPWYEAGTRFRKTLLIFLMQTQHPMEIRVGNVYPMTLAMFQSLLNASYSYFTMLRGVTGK

Compound | interaction with the olfactory receptor [1] | interaction with the olfactory receptor [2] | interaction with the olfactory receptors [3] | Repellency %, R % ([4]; Day 0) [%] | sec. on T surface [4, 6] [s] | sec. on T surface [4, 7] [s] | sec. on T surface ([4]; Day 1) | sec. on T surface ([4]; Day 1, test up to about 300 seconds) | change in intracellular Ca^2+ levels (340/380 fluorescence ratio) [5] | repellency [4] | Repellency %, R % ([4]; Day 1) [%]
C=C(C)[C@H]1CC=C(C)CC1 [d-limonene] | interact | interact | interact with the olfactory receptors | 62.9 | 55.7 | 55.7 | 136.2 s and 136.4 s and 133.6 s | 136.2 s and 136.4 s and 133.6 s | calcium mobilization |  | 
OCc1ccc2c(c1)OCO2 [piperonyl alcohol] | interact | interact | interact with the olfactory receptors |  |  |  |  |  | calcium mobilization |  | 
CC(C)[C@]12CC(=O)[C@H](C)[C@H]1C2 [α-thujone] | interact | interact | interact with the olfactory receptors |  |  |  |  |  | calcium mobilization | display repellency | 
C=C1CCC2(C(C)C)CC12 (stereo not drawn) [sabinene] | interact | interact | interact with the olfactory receptors |  |  |  |  |  | calcium mobilization | display repellency | 
C=C(C)[C@H]1CC=C(C)C(=O)C1 [d-carvone] |  |  |  |  |  |  |  |  | calcium mobilization |  | 
CC1=CCC2CC1C2(C)C (stereo not drawn) [α-pinene] | interact | interact | interact with the olfactory receptors | 48.4 |  | 77.4 | 139.2 s |  | calcium mobilization |  | 07.2
CC1=CCC(C(C)(C)O)CC1 (stereo not drawn) [α-terpineol] | interact | interact | interact with the olfactory receptors | 26.9 |  | 109.6 |  |  |  |  | 
Cc1ccc(C(C)C)cc1 [p-cymene] | interact | interact | interact with the olfactory receptors | 42.5 |  | 86.2 | 133.6 s |  | calcium mobilization |  | 10.9
NCc1ccc2c(c1)OCO2 [piperonyl amine] | interact | interact | interact with the olfactory receptors | 48.3 |  | 77.6 | 111.2 s |  | calcium mobilization |  | 25.9
O=Cc1ccc2c(c1)OCO2 [piperonal] | interact | interact | interact with the olfactory receptors | 37.6 |  | 93.6 | 125.8 s |  | decreases the intracellular Ca^2+ levels |  | 16.1
C=CC(C)(O)CCC=C(C)C (stereo not drawn) [linalool] | interact | interact | interact with the olfactory receptors | 60.7 |  | 59.0 | 111.2 s |  | calcium mobilization |  | 25.9
C/C=C/c1ccc(OC)cc1 [t-anethole] | interact | interact | interact with the olfactory receptors |  |  |  |  |  |  |  | 
Cc1ccc(C(C)C)cc1O [carvacrol] | interact | interact | interact with the olfactory receptors |  |  |  |  |  | calcium mobilization | display repellency | 
terpinene 900 [listing 1 of 2 here] | interact | interact |  |  |  |  |  |  |  |  | 
C=C[C@H]1C[N@@]2CC[C@H]1C[C@H]2[C@H](O)c1ccnc2ccc(OC)cc12 [quinine] |  |  |  |  |  |  |  |  | calcium mobilization |  | 
O=C1C=CC(=O)C=C1 [quinone] | interact | interact | interact with the olfactory receptors |  |  |  |  |  |  |  | 
C=CC(C)(CCC=C(C)C)OC(=O)c1ccccc1N (stereo not drawn) [linalyl anthranilate] | interact | interact | interact with the olfactory receptors | 69.2 |  | 46.2 | 104.6 s |  | calcium mobilization |  | 30.7
C=C(C)[C@@H]1CC=C(CO)CC1 [perillyl alcohol] |  |  |  |  |  |  |  |  | calcium mobilization |  | 
lindenol [listing 1 of 2 here] | interact | interact |  | 04.0 | 144.2 |  |  |  |  |  | 
terpinene 900 [listing 2 of 2 here] |  |  | interact with the olfactory receptors |  |  |  |  |  | calcium mobilization |  | 
CCOC(=O)c1ccccc1C(=O)OCC [diethyl phthalate] | interact | interact | interact with the olfactory receptors |  |  |  |  |  |  |  | 
lindenol [listing 2 of 2 here] |  |  | interact with the olfactory receptors |  |  | 144.2 |  |  | calcium mobilization |  | 
l-carvone |  |  |  |  |  |  |  |  | calcium mobilization |  | 
